# Results as given in US4935579A, “Separation of m-diisopropylbenzene from p-diisopropylbenzene by azeotropic distillation with alcohols” (priority 1988, dated 1990).
# Experiments:
# [1] = Vapor-liquid equilibrium still: relative volatility of m-DIPB to p-DIPB with alcohol agent and azeotrope boiling point; format: physicochemical; details: for Azeotrope B.P.: 640 mm. Hg; for Azeotrope B.P. / Relative Volatility (m-DIPB to p-DIPB): starting mixture 50 % alcohol, 25 % m-DIPB, 25 % p-DIPB; for Relative Volatility (m-DIPB to p-DIPB): vapor-liquid equilibrium still; for vapor composition, m-DIPB / vapor composition, p-DIPB: gas chromatography; for relative volatility of m-DIPB to p-DIPB: Examples 1 and 2, reflux thirteen or eleven hours
# Source text: The data in Tables 2 and 3 were obtained in a vapor-liquid equilibrium still. In each case, the starting material was a mixture containing 50 % alcohol, 25 % m-DIPB and 25 % p-DIPB. The boiling points of the azeotropes at 640 mm. Hg are shown. The relative volatilities are listed for each of the alcohols investigated.
# Forty grams of m-DIPB - p-DIPB mixture and 40 grams of diethylene glycol butyl ether were charged to an Othmer type vapor-liquid equilibrium still and refluxed for thirteen hours. Analysis by gas chromatography gave a vapor composition of 68.9% m-DIPB, 31.1% p-DIPB; a liquid decomposition of […], 36.8% p-DIPB. This indicates a relative volatility of m-DIPB to p-DIPB of 1.29.
# Forty grams of m-DIPB - p-DIPB mixture and 40 grams of diethylene gylcol methyl ether were charged to the vapor-liquid equilibrium still and refluxed for eleven hours. Analysis indicated a vapor composition of 66.7% m-DIPB, 33.3% p-DIPB; a liquid composition of […] which is a relative volatility of 1.28.
# [2] = no agent; prior art description; cited from earlier work
# [3] = Packed rectification column (Berl saddles, 2.3 theoretical plates), Fenske equation; format: physicochemical; details: 80 g m-DIPB, 20 g p-DIPB, 40 g agent, two hours total reflux
# Source text: A solution comprising 80 grams of m-DIPB, 20 grams of p-DIPB and 40 grams of o-isopropyl phenol was placed in the stillpot and heated. After two hours of refluxing a total reflux, analysis was made by gas chromatography. The overhead composition was 78% m-DIPB, 22% p-DIPB and the stillpot analysis was 62.7% m-DIPB, 37.3% p-DIPB. Using these compositions in the Fenske equation with the number of theoretical plates in the column being 2.3 gave an average relative volatility of 1.34 for each theoretical plate.
# [4] = Boiling point and rectification of the isomers without agent; format: physicochemical; details: 99% purity, 75% efficiency, no agent
# Procedure: In the manufacture of cumene, also called isopropylbenzene, by the alkylation of benzene with propylene, the most prevalent by-products are the diisopropylbenzenes with the meta and para isomers comprising most of the by-product. m-Diisopropylbenzene (m-DIPB) boils at 203.2° C. […] boils at 210.3° C. and these two have a relative volatility of 1.14. The difficulty of separating these two by rectification can be shown by the data in Table 1.
# that rectification of m-DIPB from p-DIPB in 99% purity requires 95 actual plates. Using azeotropic distillation with an agent yielding a relative volatility of 1.29 would require only 48 actual plates.
# [5] = m-DIPB and p-DIPB, no agent; cited from earlier work
# [6] = 40 g m-DIPB - p-DIPB mixture and 40 g agent
Compound,Relative Volatility (m-DIPB to p-DIPB) [1],Azeotrope B.P. [1],other results
CCCCCCOCCO [Ethylene glycol hexyl ether],1.26,195 °C,–
CCC(C)c1ccccc1O (stereo not drawn) [o-sec. Butyl phenol],1.23,205 °C,–
CC(O)CO (stereo not drawn) [Propylene glycol],1.28,168 °C,–
CCOCCOCCO [Diethylene glycol ethyl ether],1.25,185 °C,–
Cc1ccccc1O [o-Cresol],1.26,184 °C,–
CCCCC(CC)CO (stereo not drawn) [2-Ethyl hexanol],1.27,183 °C,Relative Volatility of alcohol:DIPB mixture ([1]; one part agent with one part m-DIPB - p-DIPB mixture): 1.27
CCCCOCCOCC(C)O (stereo not drawn) [Butoxyethoxypropanol],1.17,199 °C,–
"CC(C)c1ccc(C(C)C)cc1 [p-DIPB, p-diisopropylbenzene]",–,–,boiling point [2]: 210.3 °C
"CC(C)c1cccc(C(C)C)c1 [m-DIPB, m-Diisopropylbenzene]",–,–,actual plates required for rectification of m-DIPB from p-DIPB [4]: 95 actual plates; relative volatility used in column calibration [5]: 1.14; boiling point [2]: 203.2 °C; relative volatility of m-DIPB and p-DIPB without agent [2]: 1.14
OCc1ccccc1 [Benzyl alcohol],1.11,–,–
COCCOCCO [Diethylene glycol methyl ether],1.28,182 °C,"liquid composition, m-DIPB [1, 6]: 60.9%; vapor composition, m-DIPB [1, 6]: 66.7%; vapor composition, p-DIPB [1, 6]: 33.3%; relative volatility of m-DIPB to p-DIPB [1, 6]: 1.28"
Cc1cccc(O)c1 [m-Cresol],1.17,189 °C,–
Dipropylene glycol methyl ether,–,186 °C,–
OCC1CCCO1 (stereo not drawn) [Tetrahydrofurfuryl alcohol],1.21,171 °C,–
OCCOc1ccccc1 [Ethylene glycol phenyl ether],1.14,–,–
CCCCOCCO [Ethylene glycol butyl ether],0.6,–,–
Oc1ccccc1 [Phenol],1.24,174 °C,–
CC(C)(C)c1ccccc1O [o-tert. Butyl phenol],1.20,205 °C,–

# The next lines start with results.
Relative Volatility (m-DIPB to p-DIPB) [1],Compound,Azeotrope B.P. [1],other results
1.22,CC(C)CCCCCCO [Isononyl alcohol],194 °C,–
1.10,CCCCCCO [n-Hexanol],–,–
1.14,CCCCCCCCO [1-Octanol],–,–
1.23,CCCCCCCCCO [n-Nonyl alcohol],196 °C,–
1.10,CCCCCCC(C)O (stereo not drawn) [2-Octanol],–,–
1.34,CC(C)c1ccccc1O [o-Isopropyl phenol],200 °C,"overhead composition, m-DIPB [3]: 78%; overhead composition, p-DIPB [3]: 22%; stillpot composition, m-DIPB [3]: 62.7%; stillpot composition, p-DIPB [3]: 37.3%; average relative volatility for each theoretical plate ([3]; Fenske equation, 2.3 plates): 1.34"
1.13,CC(=O)CC(C)(C)O [Diacetone alcohol],–,–
1.29,CCCCOCCOCCO [Diethylene glycol butyl ether],200 °C,"liquid composition, m-DIPB [1, 6]: 63.2%; liquid composition, p-DIPB (second figure) [1, 6]: 36.8%; vapor composition, m-DIPB [1, 6]: 68.9%; vapor composition, p-DIPB [1, 6]: 31.1%; relative volatility of m-DIPB to p-DIPB [1, 6]: 1.29"
1.25,Cc1ccc(O)cc1 [p-Cresol],188 °C,–
1.06,OCCc1ccccc1 [Phenethyl alcohol],–,–
1.15,CC(C)CCCCCO [Isooctanol],–,–
1.20,CC(C)CC(O)CC(C)C [Diisobutyl carbinol],180 °C,–
